Assay results taken from patent US12163169B2, “Inducible chimeric cytokine receptors” (Allogene Therapeutics, Inc., priority 2018, dated 2024).

Tests used:
CAR-T cells [1] = assay: Cytokine measurement of CAR-T cells on day 2 and day 8 (Example 7); format: cell-based, human; details: for cytokine release without any treatment: day 2 and 8 post production, FIG. 23, FIG. 24; for autoactivation (cytokine release in the absence of small molecule): no treatment
Description: (§1) In this study, lentiviral (pLVX) constructs were generated comprising an SFFV promoter followed by a kozak sequence, the inducible chimeric cytokine receptor, a T2A sequence, and a chimeric antigen receptor. The chimeric antigen receptor was directed towards cells expressing EGFRvIII. For comparison, lentiviral constructs with either TagBFP or GoCART instead of the inducible chimeric cytokine receptor were used. GoCART consists of a myristoylation sequence followed by a portion of MyD88 and CD40 fused to two repeats of FKBP(F36V).
(§2) The T cells were transduced with lentivirus 2 days after isolation, and 3 days later were FACS sorted by binding APC-labeled EGFRvIII. The sorted EGFRvIII+ cells were cultured until 14 days post isolation.
Cytokines were measured on day 2 and day 8. AP1903 data is shown FIG. 20 and FIG. 21. All values were normalized to untreated TagBFP-expressing CAR-T Cells. […] The IFN-related tails do incur some cytokine release.
Induction of cytokines at day 2 and 8 post production without any treatment was measured.

CAR-T cells [2] = assay: Live cell count and viability of EGFRvIII CAR-T cells grown with IL2, AP1903 or no treatment (Example 7); format: cell-based, human; details: for CAR-T cell growth with AP1903 (live cell count) / CAR-T cell viability with AP1903: EGFRvIII CAR-T cells; for CAR-T cell growth with AP1903 (live cell count): 8 days post production, FIG. 16; for CAR-T cell viability with AP1903: FIG. 17
Description: as §1, §2
At day 14, the 0.5e6 cells were resuspended in a 24-well plate, and grown with either IL2, AP1903, or no treatment for 8 days post production.

STAT4 = STAT4 luciferase reporter assay comparing tyrosine kinase activating domains in HEK293 cells co-transfected with STAT4 (Example 5A); format: cell-based; details: for basal signaling: without ligand
Description: For this study, several tyrosine kinase activating domains were compared using a otherwise identical inducible cytokine receptor design. The tyrosine effector domain consists of a STAT5-activating sequence from IL7R fused to a STAT4-activating sequence from IL12Rb2. Each construct contains a membrane-targeting motif (CD8 SS), a dimerization domain (FKBP(F36V)), a tyrosine kinase activating domain derived from either the EpoR, GP130, PrIR, GHR, GCSFR, or TPOR/MPLR receptors, and a tyrosine effector domain consisting of the IL7R(316-459) cytotail fused to the IL12Rb2(775-825) peptide. Chimeric cytokine receptors also include an epitope tag for detection (Myc). The following inducible chimeric cytokine receptors were tested in this study:
HEK293 cells were transfected with constructs encoding the above inducible chimeric cytokine receptors, and a luciferase reporter for either STAT4 or STAT5. The luciferase reporters (Promega) encoded a luciferase under the control of either a STAT4 or STAT5 responsive element. As HEK293 cells lack STAT4, in wells transfected with the STAT4 reporter, a plasmid encoding constitutively-expressed STAT4 was transfected as well added. Transfected EpoR, GHR, and IL12Rb1+IL12Rb2 (the IL12 receptor) were used as positive controls. The ligand added to inducible chimeric cytokine receptors was AP1903. Epo was added to EpoR transfected cells, Growth Hormone to GHR transfected cells, and IL-12 to IL12 receptor transfected cells

CAR-T cells [3] = assay: Phenotyping of CAR-T cells at day 8 post production (Example 7); format: cell-based, human; details: for cell phenotype after growth with AP1903: FIG. 18, FIG. 19
Description: as §1, §2
At day 8 post production growth with AP1903 or IL2, cells were phenotyped.

## CD8 SS-Myc-FKBP(F36V)-EpoR(237-338; L241G, L242P)-IL2Rb(333-551): inducible chimeric cytokine receptor
CAR-T cells [1]
  cytokine release without any treatment: release IL13 and some TNFa (day 2, FIG. 23) that diminishes by day 8
CAR-T cells [1]; day 2 and day 8
  autoactivation (cytokine release in the absence of small molecule): mildly autoactivating
CAR-T cells [2]
  CAR-T cell growth with AP1903 (live cell count): slight growth

## CD8 SS-Myc-FKBP(F36V)-EpoR(237-338; L241G, L242P)-IL7R(316-459)-IL12Rb2(775-825): inducible chimeric cytokine receptor
STAT4; FIG. 9
  basal signaling: lowest basal signaling

## CD8 SS-Myc-FKBP(F36V)-EpoR(237-338; L241G, L242P)-IL7R(316-459): inducible chimeric cytokine receptor
CAR-T cells [1]
  cytokine release without any treatment: No cytokine release was observed
CAR-T cells [2]
  CAR-T cell growth with AP1903 (live cell count): robust growth
  CAR-T cell viability with AP1903: higher viability with AP1903 comparable to IL2 treatment
CAR-T cells [3]
  cell phenotype after growth with AP1903: more stem cell memory

## CD8 SS-Myc-FKBP(F36V)-EpoR(237-338; L241G, L242P)-IL12Rb2(775-825): inducible chimeric cytokine receptor
STAT4; peptide containing Y800, see Examples 3 and 5
  STAT4 signaling when used as a tyrosine effector domain: sufficient to provide STAT4 signaling

## CD8 SS-Myc-FKBP(F36V)-GCSFR(614-710)-IL7R(316-459)-IL12Rb2(775-825): inducible chimeric cytokine receptor
STAT4; AP1903, FIG. 9
  signaling for STAT4: strongest signaling for STAT4
STAT4; FIG. 9
  basal signaling: had basal signaling

## GoCART: myristoylation sequence followed by a portion of MyD88 and CD40 fused to two repeats of FKBP(F36V); previously reported multimerizer [reference compound]
CAR-T cells [1]
  cytokine release without any treatment: GM-CSF, IL5, IL13, IL22, and MIP1a at day 2 and more so at day 8
CAR-T cells [1]; day 2 and day 8, normalized to untreated TagBFP-expressing CAR-T Cells, FIG. 20, FIG. 21
  cytokine release with AP1903: robust cytokine release
CAR-T cells [1]; day 2 and day 8
  autoactivation (cytokine release in the absence of small molecule): strongly so
CAR-T cells [2]
  CAR-T cell growth with AP1903 (live cell count): slight growth
  CAR-T cell viability with AP1903: higher viability with AP1903 comparable to IL2 treatment
CAR-T cells [3]
  cell phenotype after growth with AP1903: less stem cell memory and more effector memory
CAR-T cells [3]; IL2
  cell phenotype when grown further with IL2: somewhat more differentiated

B1: CD8 SS-Myc-FKBP(F36V)-EpoR(237-338; L241G, L242P)-IFNAR2(310-515): inducible chimeric cytokine receptor (protein)
chain: KKKVWDYNYDDESDSDTEAAPRTSGGGYTMHGLTVRPLGQASATSTESQLIDPESEEEPDLPEVDVELPTMPKDSPQQLELLSGPCERRKSPLQDPFPEEDYSSTEGSGGRITFNVDLNSVFLRVLDDEDSDDLEAPLMLSSHLEEMVDPEDPDNVQSNHLLASGEGTQPTFPSPSSEGLWSEDAPSDQSDTSESDVDLGDGYIMR
CAR-T cells [1]; Day 8 cytokine measurements
  IL-2 consumption: did not consume as much IL-2
CAR-T cells [1]
  cytokine release without any treatment: constitutively release small amounts of IL5
CAR-T cells [1]; day 2 and day 8
  autoactivation (cytokine release in the absence of small molecule): mildly autoactivating
CAR-T cells [2]; FIG. 25
  CAR-T cell counts on post-production day 5 and day 8: least growth
CAR-T cells [2]; no treatment, over a week, FIG. 22
  growth without signaling: some less growth
